In one series the test system is glutathione (GSH). In words: Reactivity Profiling with Glutathione (GSH), half-life by HPLC. The following applies: 5 mM glutathione (GSH) in IMDM with 10% FBS.
The test system of the next series is MV4-11 cells. In words: MV4-11 Cell Cytotoxicity Assay (CellTiter-Blue, 72 h). The class given is cell-based, human. The following applies: Homo sapiens, MV4-11; MV-4-11 cells. The gist of the method:
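Cells seeded 24 h before treatment, then exposed 72 h at 37° C, 5% CO2 to inhibitors in triplicate, top concentration 50 μM with 1:2 serial dilutions (0.5% DMSO vehicle). Viability read by CellTiter-Blue fluorescence at 560/590 nm after 1 h.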

Here are results for 8 compounds from US20230159445A1, “STAT INHIBITORY COMPOUNDS AND COMPOSITIONS” (JANPIX LIMITED, priority 2020, published 2023).

Each structure is given as a SMILES string.

Experimental for glutathione (GSH): 3.5 μL of 5 mM stocking solution of the inhibitors in DMSO was added to 697.5 μL of Iscove's Modified Dulbecco's Medium (IMDM) supplemented with 10% FBS and antibiotic antimycotic solution, with 5 mM glutathione to afford a final concentration of 25 μM inhibitor with 0.5% DMSO. The solution was then immediately placed in the sample tray at 25° C. […] For each inhibitor, its peak is integrated at different time points and compared to the time zero injection in order to obtain a percentage remaining. Half-life is calculated according to a first order reaction kinetic taking into account those time points for which remaining percentage of inhibitor is above 40%, using the formula: t½=Ln(2)/k, where k is the slope of the linear plot of Ln[Inhibitor] vs time, according to the formula: Ln[A]=Ln[A]0−kt, where [A] is the value resulting from the integration at each time point, [A]0 the value at time zero, and t the time. For each inhibitor, both replicates are averaged and the resulting t½ reported.

Usually half-life stands for the time needed for the level to fall by half in the phase considered. Higher therefore signals slow decline. Broadly, the IC50 is the concentration that gives 50% inhibition. Low readings indicate inhibition by little substance, high ones a need for much substance. Take `Cc1cc(C(=O)O)ccc1N(Cc1cc(C2CC2)cc(C(C)(C)C)c1)C(=O)CN(Cc1ccccc1C(F)(F)F)S(=O)(=O)c1c(F)c(F)c(F)c(F)c1F` [Compound 1089, 4-(N-(3-(tert-butyl)-5-cyclopropylbenzyl)-2-(N-(2-(trifluoromethyl)benzyl)-(2,3,4,5,6-pentafluoro-phenyl)sulfonamido)acetamido)-3-methylbenzoic acid]: the half-life at 25 μM in the series with glutathione (GSH) lay within 9.23 to 1670 h. In addition, in the series on MV4-11 cells, the concentration for half-maximal inhibition (IC50) was in the range of 316 to 1000 nM.

In the series on glutathione (GSH), `CC(C)(C)c1cc(CN(C(=O)CN(Cc2ccc(Cl)cc2)S(=O)(=O)c2c(F)c(F)c(F)c(F)c2F)c2ccc(C(=O)O)cc2O)cc(C2CC2)c1` [Compound 1015, 4-(N-(3-(tert-butyl)-5-cyclopropylbenzyl)-2-(N-(4-chlorobenzyl)-(2,3,4,5,6-pentafluorophenyl)sulfon-amido)acetamido)-3-hydroxybenzoic acid] had a half-life at 25 μM of 4.12 to 9.23 h. Further, in the series on MV4-11 cells, the half-inhibitory concentration (IC50) was 3160 to 100000 nM.

On to `COc1cc(C(=O)O)ccc1N(Cc1cc(C2CC2)cc(C(C)(C)C)c1)C(=O)CN(Cc1cccc(C(F)(F)F)n1)S(=O)(=O)c1c(F)c(F)c(F)c(F)c1F` [Compound 1118, 4-(N-(3-(tert-butyl)-5-cyclopropylbenzyl)-2-(N-((6-(trifluoromethyl)pyridin-2-yl)methyl)-(2,3,4,5,6-pentafluoro-phenyl)sulfonamido)acetamido)-3-methoxybenzoic acid], for which the half-life at 25 μM in the series on glutathione (GSH) was in the range of 0.00167 to 2.37 h. The same compound registered an IC50 in the series with MV4-11 cells of 316 to 1000 nM.

As to `CN(C)c1cc(C(=O)O)c(F)cc1N(Cc1cc(C2CC2)cc(C(C)(C)C)c1)C(=O)CN(Cc1c(F)cc(F)cc1F)S(=O)(=O)c1c(F)c(F)c(F)c(F)c1F` [Compound 1124, 4-(N-(3-(tert-butyl)-5-cyclopropylbenzyl)-2-(N-(2,4,6-trifluorobenzyl)-(2,3,4,5,6-pentafluoro-phenyl)sulfonamido)acetamido)-5-(dimethylamino)-2-fluorobenzoic acid], the half-life at 25 μM in the series on glutathione (GSH) fell in the range of 4.12 to 9.23 h. This compound returned an IC50 in the series with MV4-11 cells of 0.01 to 316 nM.

The compound `COc1ccccc1CN(CC(=O)N(Cc1cc(C2CC2)cc(C(C)(C)C)c1)c1ccc(C(=O)O)cc1OC1CC1)S(=O)(=O)c1c(F)c(F)c(F)c(F)c1F` [Compound 1234, 4-(N-(3-(tert-butyl)-5-cyclopropylbenzyl)-2-(N-(2-methoxybenzyl)-(2,3,4,5,6-pentafluoro-phenyl)sulfonamido)acetamido)-3-cyclopropoxybenzoic acid] showed a half-life at 25 μM in the series on glutathione (GSH) of 4.12 to 9.23 h. For the same compound, the IC50 with MV4-11 cells was 316 to 1000 nM.

`CC(C)(C)c1cc(CN(C(=O)CN(Cc2ccccc2F)S(=O)(=O)c2c(F)c(F)c(F)c(F)c2F)c2ccc(C(=O)O)cc2OC2CC(F)(F)C2)cc(C2CC2)c1` [Compound 1093, 4-(N-(3-(tert-butyl)-5-cyclopropylbenzyl)-2-(N-(2-fluorobenzyl)-(2,3,4,5,6-pentafluoro-phenyl)sulfonamido)acetamido)-3-(3,3-difluorocyclobutoxy) benzoic acid] displayed a half-life at 25 μM in the series with glutathione (GSH) of 9.23 to 1670 h. The half-maximal inhibitory concentration (IC50) in the series with MV4-11 cells lay in the range of 316 to 1000 nM.

Turning to `CC(C)(C)c1cc(CN(C(=O)CN(Cc2ccccc2C(F)(F)F)S(=O)(=O)c2c(F)c(F)c(F)c(F)c2F)c2ccc(C(=O)O)c(O)c2)cc(C2CC2)c1` [Compound 1048, 4-(N-(3-(tert-butyl)-5-cyclopropylbenzyl)-2-(N-(2-(trifluoromethyl)benzyl)-(2,3,4,5,6-pentafluoro-phenyl)sulfonamido)acetamido)-2-hydroxybenzoic acid], the half-life at 25 μM in the series with glutathione (GSH) is 9.23 to 1670 h. In the series on MV4-11 cells, this compound showed an IC50 of 1000 to 3160 nM.

Consider `O=C(O)c1ccc(N(Cc2cc(C3CC3)cc(C3CC3)c2)C(=O)CN(Cc2cnccc2C(F)(F)F)S(=O)(=O)c2c(F)c(F)c(F)c(F)c2F)c(OC2CC2)c1` [Compound 1163, 3-cyclopropoxy-4-(N-(3,5-dicyclopropylbenzyl)-2-(N-((4-(trifluoromethyl)pyridin-3-yl)methyl)-(2,3,4,5,6-pentafluoro-phenyl)sulfonamido)acetamido)benzoic acid], for which the half-life at 25 μM in the series with glutathione (GSH) was in the range of 2.37 to 4.12 h. Moreover, in the series on MV4-11 cells, the IC50 was in the range of 0.01 to 316 nM.
